Measurements: ChEMBL document CHEMBL1201862, “PubChem BioAssay data set” (2004)
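Cultured in 96-well plates, cells were exposed to test compound for 48 hours across five concentrations. GI50 is the concentration that inhibits growth by half.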 The source made the active and inactive calls. Cut-off read from the data, not from the text of the source: active = GI50 up to about 1.1 µM and inactive = higher.

Key:
Assay in all cases: growth of human tumour cells (NCI), 48 h
[1] = system: SR
[2] = system: MDA-MB-231
[3] = system: HOP-62
[4] = system: NCI-H522
[5] = system: RXF 393
[6] = system: SF-539
[7] = system: U-251
[8] = system: SNB-75
[9] = system: NCI-H23
[10] = system: PC-3
[11] = system: HL-60
[12] = system: CCRF-CEM
[13] = system: A498
[14] = system: COLO 205
[15] = system: LOX IMVI
[16] = system: MDA-MB-435
[17] = system: DU-145
[18] = system: ACHN
[19] = system: SF-268
[20] = system: NCI/ADR-RES

Compound | GI50 [1] | GI50 [2] | GI50 [3] | GI50 [4] | GI50 [5] | GI50 [6] | GI50 [7] | GI50 [8] | GI50 [9] | GI50 [10] | GI50 [11] | GI50 [12] | GI50 [13] | GI50 [14] | GI50 [15] | GI50 [16] | GI50 [17] | GI50 [18] | GI50 [19] | GI50 [20]
CN1CCN(CC(=O)N2c3ccccc3Sc3cc4ccccc4cc32)CC1 | 13.9 µM (inactive) | 14.6 µM (inactive) | 18.7 µM (inactive) | 15 µM (inactive) | 12.9 µM (inactive) | 15.6 µM (inactive) | 14.3 µM (inactive) | 14.5 µM (inactive) | 19.7 µM (inactive) | 14.3 µM (inactive) | 0.394 µM (active) | 26 µM (inactive) | 13.7 µM (inactive) | 13.9 µM (inactive) | 15.5 µM (inactive) | 11.4 µM (inactive) | 15.9 µM (inactive) | 16.4 µM (inactive) | 11.6 µM (inactive) | 16.1 µM (inactive)
COC(=O)C1CCC(=O)N1C(c1ccc(OC)cc1)c1cc(OC)c(OC)c(OC)c1 (stereo not given) | 0.18 µM (active) | 3.24 µM (inactive) | 0.378 µM (active) | 0.047 µM (active) | 0.0545 µM (active) | 0.274 µM (active) | 0.364 µM (active) | 0.389 µM (active) | 0.553 µM (active) | 0.288 µM (active) | 0.245 µM (active) | 0.311 µM (active) | 0.705 µM (active) | 0.292 µM (active) | 0.356 µM (active) | 0.057 µM (active) | 0.306 µM (active) | 0.52 µM (active) | 0.625 µM (active) | 0.258 µM (active)
COc1ccc(Cn2c3c(cc(OS(=O)(=O)C(F)(F)F)c2=O)Cc2ccccc2-3)cc1 | 4.36 µM (inactive) | > 50 µM (inactive) | 21.9 µM (inactive) | 22 µM (inactive) | 29.9 µM (inactive) | 10.3 µM (inactive) | 19.2 µM (inactive) | > 50 µM (inactive) | 19.7 µM (inactive) | > 50 µM (inactive) | 10.7 µM (inactive) | 6.27 µM (inactive) | > 50 µM (inactive) | 9.95 µM (inactive) | 10 µM (inactive) | 19.3 µM (inactive) | 20.2 µM (inactive) | 21.6 µM (inactive) | 12.8 µM (inactive) | 2.29 µM (inactive)
CC(C)(C)c1cc(C(C)(C)C)c2sc(=S)oc2c1O | 3.18 µM (inactive) | 13.6 µM (inactive) | 14.9 µM (inactive) | 5.9 µM (inactive) | 4.69 µM (inactive) | 2.39 µM (inactive) | 6.3 µM (inactive) | 6.49 µM (inactive) | 5.37 µM (inactive) | 4.29 µM (inactive) | 7.45 µM (inactive) | 3.76 µM (inactive) | 12.9 µM (inactive) | 14.5 µM (inactive) | 5.05 µM (inactive) | 8.17 µM (inactive) | 11.7 µM (inactive) | 8.53 µM (inactive) | 3.4 µM (inactive) | 9.89 µM (inactive)
C[n+]1cccc(/C=C/c2ccc3cccc(O)c3n2)c1 | > 100 µM (inactive) | > 100 µM (inactive) | 59 µM (inactive) | 24.8 µM (inactive) | > 100 µM (inactive) | 88.1 µM (inactive) | 49.2 µM (inactive) | > 100 µM (inactive) | 58.2 µM (inactive) | > 100 µM (inactive) | 28.1 µM (inactive) | 45.7 µM (inactive) | > 100 µM (inactive) | > 100 µM (inactive) | > 100 µM (inactive) | > 100 µM (inactive) | > 100 µM (inactive) | > 100 µM (inactive) | 26.9 µM (inactive) | > 100 µM (inactive)
Nc1nc(Cl)cc(NCC2CC(O)(CO)C2)n1 (stereo not given) | > 10 µM (inactive) | > 100 µM (inactive) | > 100 µM (inactive) | > 100 µM (inactive) | > 100 µM (inactive) | > 100 µM (inactive) | > 100 µM (inactive) | > 100 µM (inactive) | > 100 µM (inactive) | > 100 µM (inactive) | > 100 µM (inactive) | > 100 µM (inactive) | > 100 µM (inactive) | > 100 µM (inactive) | > 100 µM (inactive) | > 100 µM (inactive) | > 100 µM (inactive) | > 100 µM (inactive) | > 100 µM (inactive) | > 100 µM (inactive)
NS(=O)(=O)c1ccc(/N=N/c2c(O)c(C(=O)O)cc3ccccc23)cc1 | 33.3 µM (inactive) | > 100 µM (inactive) | 99.1 µM (inactive) | > 76.7 µM (inactive) | > 100 µM (inactive) | > 100 µM (inactive) | 49.3 µM (inactive) | > 100 µM (inactive) | > 100 µM (inactive) | > 100 µM (inactive) | > 100 µM (inactive) | > 100 µM (inactive) | > 100 µM (inactive) | > 54.5 µM (inactive) | 82.6 µM (inactive) | 45.4 µM (inactive) | > 100 µM (inactive) | > 100 µM (inactive) | > 100 µM (inactive) | > 100 µM (inactive)
